Publication PMC7463651, “Phase I/Ib Study of Tenalisib (RP6530), a Dual PI3K δ/γ Inhibitor in Patients with Relapsed/Refractory T-Cell Lymphoma” (Cancers, 2020)
Values joined by “and” are separate entries in the source; they are usually repeats but may differ in a detail not shown here. Identical values can stand only once. “Also recorded” adds a separate entry of the source.

Legend:
CD30, IL-31 and IL-32α = test: Correlative biomarker analysis in plasma; type: in vivo, human
Procedure: Assessment of CD30 and soluble IL-2 receptor (sIL-2R) for PTCL and cutaneous T-cell attracting chemokine (CTACK), IL-31 and IL-32α for CTCL were performed in plasma at screening, pre-dose and after 1 h on Day 1 of Cycle 3, at EOT and/or to confirm a response.

[1] = system: T-cell leukemia xenograft; parameters: method as in ref 18 = [18]; 18. Mao G. Viswanadha S. Rhizen, Switzerland Unpublished work 2013; conditions: cited from earlier work
[2] = system: relapsed/refractory T-cell lymphoma (PTCL and CTCL); test: Efficacy assessment (ORR, DoR), all evaluable patients; type: in vivo, human; conditions: for Median DoR (95% CI) / ORR (95% CI): All
Procedure: (§1) Efficacy assessments included radiological, bone marrow biopsy/aspiration and skin assessments. In some cases, bone marrow disease alone was used for disease assessment. In these cases, response was reported as CR or non-CR.
In PTCL patients, radiological assessment was performed at screening, Day 1 of Cycle 3 and 5 and approximately 12 weeks thereafter. Assessments of skin lesions in PTCL patients were performed, if applicable. Bone marrow biopsy/aspirate was performed in patients without measurable but assessable disease at screening and on Day 1 of Cycle 3 and 5, then also approximately 12 weeks thereafter to confirm a CR.
(§2) In CTCL patients, assessment of skin lesions was performed at screening, Day 1 of Cycle 3 and 5, approximately 12 weeks thereafter and at the end of treatment (EOT). Skin photographs were obtained for half body global and up to 5 selected representative index lesions at baseline, at Day 1 of Cycle 3, EOT, at PR/CR/progressive disease (PD) and as required as per the discretion of the Investigator. In case of nodal involvement, radiological assessment was performed at screening, Day 1 of Cycle 3 and 5 and approximately 12 weeks thereafter. Skin biopsy was performed from the most indurated area at screening, on C3D1 and to confirm a CR.
(§3) The efficacy parameters included ORR and DoR. Revised Response Criteria for Malignant Lymphoma (Cheson 2007) was used for evaluation of PTCL [21]. International Society for Cutaneous Lymphomas Response Criteria for Mycosis Fungoides and Sezary Syndrome (SS) and Cutaneous Lymphoma Task Force of the European Organization for Research and Treatment of Cancer criteria were used for evaluation of CTCL patients. For skin scoring, the modified Severity Weighted Assessment Tool was used. For local index lesion skin scoring, the Composite Assessment of Index Lesion Severity was used.

[3] = parameters: method as in ref 27 = [27]; 27. Barde P. Rhizen, Switzerland Unpublished work 2016; conditions: healthy volunteers, high fat meal; cited from earlier work
[4] = system: malignant patient derived primary CTCL cells; parameters: method as in ref 18 = [18]; 18. Mao G. Viswanadha S. Rhizen, Switzerland Unpublished work 2013; conditions: cited from earlier work
[5] = system: patient-derived primary cell lines representative of B and T lymphoma cell lines; parameters: method as in doi:10.1182/blood.V122.21.4418.4418; conditions: cited from earlier work
patients = conditions: cumulative safety data across two studies; cited from earlier work
relapsed/refractory CTCL = test: Efficacy assessment (ORR, DoR), CTCL patients; type: in vivo, human; conditions: for Median DoR (95% CI) / ORR (95% CI): CTCL
Procedure: as §1, §2, §3

[6] = CTCL group, Cycle 3 Day 1 compared to baseline, correlated with responses
[7] = Dose Escalation 800 mg Fasting, N = 3
[8] = Dose Escalation 800 mg Fed, N = 5
[9] = Dose Expansion 800 mg Fasting, N = 22
[10] = Dose Escalation 800 mg Fasting, N = 2
[11] = Dose Escalation 800 mg Fed, N = 4
[12] = Dose Expansion 800 mg Fasting, N = 12

SMILES: CC[C@H](Nc1ncnc2[nH]cnc12)c1oc2ccccc2c(=O)c1-c1cccc(F)c1 [Tenalisib]
- Plasma IL-31 levels (CD30, IL-31 and IL-32α; [6]): marked downregulation; also recorded: reductions
- Plasma IL-32α levels (CD30, IL-31 and IL-32α; [6]): marked downregulation; also recorded: reductions
- Plasma CD30 levels (CD30, IL-31 and IL-32α; PTCL patients, baseline to Cycle 3 Day 1, correlated with response): marked downregulation; also recorded: decrease in CD30 levels
- Efficacy in xenograft model [1]: demonstrated efficacy
- Complete response (CR), number of patients ([2]; 35 evaluable patients): 3 patients
- Partial response (PR) ([2]; 35 evaluable patients): 13 n (%) and 13 (37%) n (%)
- Progressive disease (PD) ([2]; 35 evaluable patients): 8 (22.9%) n (%)
- Complete response (CR) ([2]; 35 evaluable patients, three patients): 9%
- Median DoR (95% CI) ([2]; Cumulative Total, N = 35): 4.9 months and 4.9 (4.3, 12.0) months
- ORR (95% CI) ([2]; Cumulative Total, N = 35): 45.7% and 45.7 (28.8, 63.4) %
- Median DoR (95% CI) ([2]; Dose Escalation 200 mg, N = 3): 4.9 (-,-) months
- ORR (95% CI) ([2]; Dose Escalation 200 mg, N = 3): 33.3 (0.8, 90.6) %
- Median DoR (95% CI) ([2]; Dose Escalation 400 mg, N = 2): 2.4 (0.97, 3.8) months
- ORR (95% CI) ([2]; Dose Escalation 400 mg, N = 2): 100.0 (15.8, 100.0) %
- Median DoR (95% CI) [2, 7]: 10.9 (2.3, 19.5) months
- ORR (95% CI) [2, 7]: 66.7 (9.4, 99.2) %
- Median DoR (95% CI) [2, 8]: 3.3 (1.7, 4.9) months
- ORR (95% CI) [2, 8]: 40.0 (5.3, 85.3) %
- Median DoR (95% CI) ([2]; Dose Escalation Total, N = 13): 3.8 (0.7, 10.2) months
- ORR (95% CI) ([2]; Dose Escalation Total, N = 13): 53.8 (25.1, 80.8) %
- Median DoR (95% CI) [2, 9]: 7.5 (4.7, 15.9) months
- ORR (95% CI) [2, 9]: 40.9 (20.7, 63.6) %
- Patients who responded ([2]; out of 35 evaluable patients): 16 patients
- Time of response ([2]; responders): Most of the patients responded at Cycle 3 Day 1
- Effect of food on Cmax [3]: no significant effect on Cmax
- Effect of food on overall exposure [3]: increased the overall exposure
- Ex-vivo activity [4]: shown ex-vivo activity
- Apoptotic and anti-proliferative activity [5]: demonstrated apoptotic and anti-proliferative activity
- Colitis and pneumonitis events (patients): no events of colitis and pneumonitis
- Transaminitis incidence (patients): 10%
- Partial response (PR), number of patients (relapsed/refractory CTCL; CTCL patients): 9 patients
- Median DoR (95% CI) (relapsed/refractory CTCL; Cumulative Total, N = 20): 3.8 months and 3.8 (2.3, 12.8) months
- ORR (95% CI) (relapsed/refractory CTCL; Cumulative Total, N = 20): 45% and 45.0 (23.1, 68.5) %
- ORR (95% CI) (relapsed/refractory CTCL; Dose Escalation 200 mg, N = 1): 0.0 (0.0, 97.5) %
- Median DoR (95% CI) (relapsed/refractory CTCL; Dose Escalation 400 mg, N = 1): 3.8 (-,-) months
- ORR (95% CI) (relapsed/refractory CTCL; Dose Escalation 400 mg, N = 1): 100.0 (2.5, 100.0) %
- Median DoR (95% CI) (relapsed/refractory CTCL; [10]): 2.3 (-,-) months
- ORR (95% CI) (relapsed/refractory CTCL; [10]): 50.0 (1.3, 98.7) %
- Median DoR (95% CI) (relapsed/refractory CTCL; [11]): 3.3 (1.7, 4.9) months
- ORR (95% CI) (relapsed/refractory CTCL; [11]): 50.0 (6.8, 93.2) %
- Median DoR (95% CI) (relapsed/refractory CTCL; Dose Escalation Total, N = 8): 3.05 (1.7, 4.6) months
- ORR (95% CI) (relapsed/refractory CTCL; Dose Escalation Total, N = 8): 50.0 (15.7, 84.3) %
- Median DoR (95% CI) (relapsed/refractory CTCL; [12]): 10.3 (2.6, 19.6) months
- ORR (95% CI) (relapsed/refractory CTCL; [12]): 41.7 (15.2, 72.3) %
